In patent US8952024B2, “Herbicidal pyrimidone derivatives” (E I du Pont de Nemours and Company, priority 2009, dated 2015):

Assays:
Test in all cases: Test B pre-/postemergence plant response
Assay type in all cases: in vivo
[1] = tested on: goosegrass (Eleusine indica); details: Preemergence, 62 g ai/ha; scale 0 to 100, 0 no effect, 100 complete control
[2] = tested on: large crabgrass (Digitaria sanguinalis)
Method in brief: (§1)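 Visual injury, 0–100 scale (100 = complete control), rated against controls after 13 to 15 days in greenhouse. Pre-emergence: seeds in loam/sand soil, treated at planting. Post-emergence: 1- to 4-leaf plants (2 to 18 cm) in peat/vermiculite medium. Compounds formulated in non-phytotoxic solvent with surfactant.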

[3] = tested on: Surinam grass (Brachiaria decumbens)
Method in brief: as §1

[4] = tested on: yellow nutsedge (Cyperus esculentus)
Method in brief: as §1

[5] = tested on: galium (catchweed bedstraw, Galium aparine); details: Preemergence
Method in brief: as §1

[6] = tested on: cocklebur (Xanthium strumarium)
Method in brief: as §1

[7] = tested on: lambsquarters (Chenopodium album)
Method in brief: as §1

[8] = tested on: sunflower (common oilseed sunflower, Helianthus annuus); details: Preemergence
Method in brief: as §1

kochia (Kochia scoparia) = tested on: kochia (Kochia scoparia)
Method in brief: as §1

wild oat (Avena fatua) = tested on: wild oat (Avena fatua)
Method in brief: as §1

[9] = tested on: nightshade (eastern black nightshade, Solanum ptycanthum); details: Preemergence
Method in brief: as §1

[10] = tested on: woolly cupgrass (Eriochloa villosa)
Method in brief: as §1

[11] = 250 g ai/ha, Preemergence, 0 to 100 scale
[12] = Postemergence, 31 g ai/ha, scale 0 to 100 (0 no effect, 100 complete control)
[13] = Postemergence, 62 g ai/ha, scale 0 (no effect) to 100 (complete control), 13 to 15 days
[14] = Postemergence, 125 g ai/ha, visual rating after 13 to 15 days, scale 0 (no effect) to 100 (complete control)
[15] = Postemergence, 250 g ai/ha, scale 0 to 100
[16] = Preemergence, 31 g ai/ha, scale 0 to 100 (0 no effect, 100 complete control)
[17] = Preemergence, 62 g ai/ha, scale 0 to 100, 0 no effect, 100 complete control
[18] = Preemergence, 125 g ai/ha, 0 to 100 scale
[19] = 31 g ai/ha, scale 0 to 100 (0 no effect, 100 complete control)
[20] = 62 g ai/ha, scale 0 to 100, 0 no effect, 100 complete control

Substance: 2-(3,5-difluorophenyl)-5-[(2-hydroxy-4-oxobicyclo[3.2.1]oct-2-en-3-yl)carbonyl]-3-(2-methoxyethyl)-4(3H)-pyrimidinone [Compound 243]
- Plant response rating, Goosegrass [1]: 98
- Plant response rating, Crabgrass, Large [2, 11]: 100
- Plant response rating, Crabgrass, Large [2, 12]: 70
- Plant response rating, Crabgrass, Large [2, 13]: 80
- Plant response rating, Crabgrass, Large [2, 14]: 85
- Crabgrass, Large plant response rating [2, 15]: 95
- Plant response rating, Crabgrass, Large [2, 16]: 0
- Plant response rating, Crabgrass, Large [2, 17]: 90
- Crabgrass, Large plant response rating [2, 18]: 100
- Plant response rating, Surinam Grass [3, 11]: 95
- Plant response rating, Surinam Grass [3, 12]: 55
- Plant response rating, Surinam Grass [3, 13]: 65
- Plant response rating, Surinam Grass [3, 14]: 75
- Surinam Grass plant response rating [3, 15]: 85
- Plant response rating, Surinam Grass [3, 16]: 0
- Plant response rating, Surinam Grass [3, 17]: 45
- Surinam Grass plant response rating [3, 18]: 95
- Plant response rating, Nutsedge, Yellow [4, 11]: 95
- Plant response rating, Nutsedge, Yellow [4, 12]: 20
- Plant response rating, Nutsedge, Yellow [4, 13]: 25
- Plant response rating, Nutsedge, Yellow [4, 14]: 60
- Nutsedge, Yellow plant response rating [4, 15]: 70
- Plant response rating, Nutsedge, Yellow [4, 16]: 0
- Plant response rating, Nutsedge, Yellow [4, 17]: 45
- Nutsedge, Yellow plant response rating [4, 18]: 80
- Plant response rating, Galium ([5]; 250 g ai/ha, 0 to 100 scale): 95
- Plant response rating, Galium [5, 19]: 0
- Plant response rating, Galium [5, 20]: 40
- Galium plant response rating ([5]; 125 g ai/ha, 0 to 100 scale): 60
- Plant response rating, Cocklebur [6, 11]: 100
- Plant response rating, Cocklebur [6, 12]: 0
- Plant response rating, Cocklebur [6, 13]: 0
- Plant response rating, Cocklebur [6, 14]: 35
- Cocklebur plant response rating [6, 15]: 45
- Plant response rating, Cocklebur [6, 16]: 0
- Plant response rating, Cocklebur [6, 17]: 25
- Cocklebur plant response rating [6, 18]: 65
- Plant response rating, Lambsquarters [7, 11]: 100
- Plant response rating, Lambsquarters [7, 12]: 75
- Plant response rating, Lambsquarters [7, 13]: 80
- Plant response rating, Lambsquarters [7, 14]: 80
- Lambsquarters plant response rating [7, 15]: 95
- Plant response rating, Lambsquarters [7, 16]: 100
- Plant response rating, Lambsquarters [7, 17]: 100
- Lambsquarters plant response rating [7, 18]: 100
- Plant response rating, Sunflower ([8]; 250 g ai/ha, 0 to 100 scale): 98
- Plant response rating, Sunflower [8, 19]: 45
- Plant response rating, Sunflower [8, 20]: 85
- Sunflower plant response rating ([8]; 125 g ai/ha, 0 to 100 scale): 95
- Plant response rating, Kochia (kochia (Kochia scoparia); [11]): 100
- Plant response rating, Kochia (kochia (Kochia scoparia); [12]): 10
- Plant response rating, Kochia (kochia (Kochia scoparia); [13]): 15
- Plant response rating, Kochia (kochia (Kochia scoparia); [14]): 25
- Kochia plant response rating (kochia (Kochia scoparia); [15]): 85
- Plant response rating, Kochia (kochia (Kochia scoparia); [16]): 15
- Plant response rating, Kochia (kochia (Kochia scoparia); [17]): 100
- Kochia plant response rating (kochia (Kochia scoparia); [18]): 100
- Plant response rating, Oat, Wild (wild oat (Avena fatua); [11]): 60
- Plant response rating, Oat, Wild (wild oat (Avena fatua); [12]): 0
- Plant response rating, Oat, Wild (wild oat (Avena fatua); [13]): 5
- Plant response rating, Oat, Wild (wild oat (Avena fatua); [14]): 40
- Oat, Wild plant response rating (wild oat (Avena fatua); [15]): 55
- Plant response rating, Oat, Wild (wild oat (Avena fatua); [16]): 0
- Plant response rating, Oat, Wild (wild oat (Avena fatua); [17]): 0
- Oat, Wild plant response rating (wild oat (Avena fatua); [18]): 0
- Plant response rating, Nightshade ([9]; 250 g ai/ha, 0 to 100 scale): 100
- Plant response rating, Nightshade [9, 19]: 100
- Plant response rating, Nightshade [9, 20]: 100
- Nightshade plant response rating ([9]; 125 g ai/ha, 0 to 100 scale): 100
- Plant response rating, Cupgrass, Woolly [10, 11]: 60
- Plant response rating, Cupgrass, Woolly [10, 12]: 70
- Plant response rating, Cupgrass, Woolly [10, 13]: 75
- Plant response rating, Cupgrass, Woolly [10, 14]: 80
- Cupgrass, Woolly plant response rating [10, 15]: 85
- Plant response rating, Cupgrass, Woolly [10, 16]: 0
- Plant response rating, Cupgrass, Woolly [10, 17]: 15
- Cupgrass, Woolly plant response rating [10, 18]: 45
